Values of other authors as cited in patent publication US20210137919A1, “PHARMACEUTICAL FORMULATIONS, METHOD FOR PRODUCING A PHARMACEUTICAL FORMULATION, AND MEDICAMENT COMPRISING SAME” (SmaWa GmbH, priority 2018, published 2021).

CN1CC(=O)N2[C@H](c3ccc4c(c3)OCO4)c3[nH]c4ccccc4c3C[C@@H]2C1=O [tadalafil]
solubility in water: 2 to 3.2 µg/mL
